Experiments:
[1] = molecular target: T1, atrazine chlorohydrolase (AtzA) (Pseudomonas sp., UniProt P72156); assay: Enzyme kinetics of purified AtzA (HPLC)
Description: (§2) Enzyme Kinetics. […] The reactions were stopped by boiling the reaction tubes at specific times, the addition of 500 μl acetonitrile and rapid freezing at −80° C. Thawed samples were centrifuged at 14,000 rpm for 10 minutes, the supernatants were filtered through a 0.2 μM filter, and placed into crimp-seal HPLC vials. HPLC analysis was done as described above.

[2] = tested on: B. japonicum strain USDA 123 (pMD1); assay: Atrazine degradation by Bradyrhizobium japonicum carrying pMD1 (plate clearing, HPLC); assay type: cell-based
Description: Atrazine degradation gene expressed in Bradyrhizobium japonicum. […] The pMD1 was transferred from E. coli DH5α (pMD1) to B. japonicum strains USDA 123 by conjugation. This was done by using helper plasmid pRK2073 and the triparental mating procedure of Leong et al., J. Bio. Chem, 257, 8724-8730 (1982). This was done using a modified patch mating technique. Equal quantities of E. coli DH5α (pMD1), […] and spread to the size of a nickel. The patch was incubated for 4 days at 28° C. and the resulting bacterial growth was removed from the pate, serially diluted in 0.85% NaCl plus 0.01% tween 80, and spread onto the surface of minimal AG plates (Ag without yeast extract) containing 60 μg/ml tetracycline. Plates were incubated for 2 weeks at 28° C. […] Atrazine degradation was verified by HPLC analysis. The identity of transconjugants was verified by using strain specific fluorescent antibodies prepared according to Schmidt et al., J. Bacteriol., 95, 1987-1992 (1968).

[3] = molecular target: T2, N-ethylammeline chlorohydrolase (TrzA) (Gordonia rubripertincta, UniProt Q52725); settings: cited from earlier work
T2 sequence (Q52725 1-477): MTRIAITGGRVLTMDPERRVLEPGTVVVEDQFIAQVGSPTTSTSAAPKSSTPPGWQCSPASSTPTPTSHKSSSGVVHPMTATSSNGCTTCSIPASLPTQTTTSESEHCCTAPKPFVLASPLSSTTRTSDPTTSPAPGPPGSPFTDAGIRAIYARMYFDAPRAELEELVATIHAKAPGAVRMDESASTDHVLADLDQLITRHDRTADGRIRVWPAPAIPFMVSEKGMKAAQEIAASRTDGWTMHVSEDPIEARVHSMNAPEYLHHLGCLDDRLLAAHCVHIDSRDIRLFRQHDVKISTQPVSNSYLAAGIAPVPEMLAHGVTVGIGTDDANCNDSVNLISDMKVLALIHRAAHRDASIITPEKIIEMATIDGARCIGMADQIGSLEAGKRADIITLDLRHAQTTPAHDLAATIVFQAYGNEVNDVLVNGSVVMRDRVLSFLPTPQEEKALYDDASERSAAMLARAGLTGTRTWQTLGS

[4] = molecular target: T1, atrazine chlorohydrolase (AtzA); assay: Substrate range of purified AtzA in vitro; assay type: biochemical, Pseudomonas sp. strain ADP; design: made in house; host or cells: E. coli transformed with pMD4 (1.9-kb AvaI genomic fragment in pACYC184); settings: purified enzyme in vitro
Description: High performance liquid chromatography (HPLC) analysis was performed using a Hewlett-Packard HP 1090 Liquid Chromatograph system equipped with a photodiode array detector and interfaced to an HP 79994A Chemstation. […] Linear gradients of 0-6 minutes, 10-25% acetonitrile (ACN); 6-21 minutes, 25-65% ACN; 21-23 minutes, 65-100% ACN; and 23-25 minutes 100% ACN, were used. Spectral data of the column eluent was acquired between 200-400 nm (12 nm bandwidth per channel) at a sampling frequency of 640 milliseconds. Spectra were referenced against a signal at 550 nm.
The solution was loaded onto a Mono Q HR 16/10 Column (Pharmacia LKB Biotechnology, Uppsala, Sweden). The column was washed with 25 mM MOPS buffer (pH 6.9), and the protein was eluted with a 0-0.5 M KCl gradient. Protein eluting from the column was monitored at 280 nm by using a Pharmacia U.V. protein detector. Pooled fractions containing the major peak were dialyzed overnight against 1 liter 25 mM MOPS buffer (pH 6.9). The dialyzed material was assayed for atrazine degradation ability by using HPLC analysis (see above) and analyzed for purity by sodium dodecyl sulfate (SDS) polyacrylamide gel electrophoreses (Laemlli).
The AtzA protein was examined for its ability to degrade various triazine compounds in vitro.

[5] = tested on: E. coli DH5α (pMD1 or pMD2); assay: Effect of simple nitrogen sources on atrazine degradation (plate clearing); assay type: cell-based, Escherichia coli
Description: (§1) Analytical methods: plate assays, high performance liquid chromatography (HPLC), thin layer chromatography (TLC), and liquid-liquid partitioning analyses. Atrazine or hydroxyatrazine were incorporated in solid LB or minimal medium, as described in Mandelbaum et al., Appl. Environ. Microbiol., 61, 1451-1457 (1995), at a final concentration of 500 μg/ml to produce an opaque suspension of small particles in the clear agar. The degradation of atrazine or hydroxyatrazine by wild-type and recombinant bacteria was indicated by a zone of clearing surrounding colonies.

[6] = tested on: Pseudomonas species strain ADP; assay: as above; assay type: cell-based; settings: solid media with 500 ppm atrazine, 2 weeks of incubation at 28° C. or 37° C.
Description: as §1

CCNc1nc(Cl)nc(NC(C)C)n1 = assay: purified protein, by the assay type; settings: other: purified AtzA 50 μg/ml, 25 mM MOPS pH 6.9, room temperature
Description: as §2

[7] = protein concentration of 50 mg/liter

T1 sequence (P72156 whole entry): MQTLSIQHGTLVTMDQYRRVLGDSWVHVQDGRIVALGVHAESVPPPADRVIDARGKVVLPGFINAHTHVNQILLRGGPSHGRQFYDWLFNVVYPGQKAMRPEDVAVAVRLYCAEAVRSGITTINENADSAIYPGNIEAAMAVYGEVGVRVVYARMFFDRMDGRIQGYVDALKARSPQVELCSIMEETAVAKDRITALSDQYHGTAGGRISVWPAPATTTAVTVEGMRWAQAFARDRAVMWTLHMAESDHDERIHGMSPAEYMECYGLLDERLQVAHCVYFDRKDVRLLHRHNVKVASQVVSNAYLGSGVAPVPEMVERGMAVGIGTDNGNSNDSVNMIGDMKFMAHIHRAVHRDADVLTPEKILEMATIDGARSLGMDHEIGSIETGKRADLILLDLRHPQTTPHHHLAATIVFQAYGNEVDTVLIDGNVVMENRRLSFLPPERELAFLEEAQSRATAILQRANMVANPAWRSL

CCNc1nc(Cl)nc(NC(C)C)n1 [Atrazine, 2-chloro-4-ethylamino-6-isopropylamino-1,3,5-s-triazine]
time to degrade about 100 μM of atrazine to about 1 μM [1, 7]: about 1.35 hours
time to degrade about 30 ppm of atrazine to about 3 ppb [1, 7]: about 2.6 hours
Km ([1]; read-out: Km of AtzA for atrazine, purified AtzA 50 μg/ml, 25 mM MOPS pH 6.9, room temperature): 125 µM
time to clear atrazine on plates ([2]; AG media plates containing up to 500 ppm atrazine): 10 days
atrazine in overnight culture broth by HPLC ([2]; supplied atrazine 33 ppm): no atrazine detectable
Degradation of substrate by TrzA [3]: does not degrade

CCNc1nc(N)nc(Cl)n1 [Desisopropylatrazine, 2-chloro-4-ethylamino-6-amino-s-triazine]
Degradation of substrate by TrzA [3]: ability to dechlorinate
Km ([3]; reported for the related triazine hydrolase TrzA): 82 µM
Degradation of substrate by AtzA ([4]; listed as deisopropylatrazine): ability to dechlorinate

Nc1nc(N)nc(N)n1 [Melamine, 2,4,6-triamino-s-triazine]
Degradation of substrate by AtzA [4]: not substrates
Degradation of substrate by AtzA ([4]; listed as melamine): does not degrade

CCNc1nc(Cl)nc(NCC)n1 [Simazine, 2-chloro-4,6-diethylamino-s-triazine]
Degradation of substrate by TrzA [3]: does not degrade

CCNc1nc(Cl)nc(NC(C)(C)C)n1 [Tertbutylazine, 2-chloro-4-ethylamino-6-terbutylamino-s-triazine]
Degradation of substrate by AtzA [4]: not substrates

Cl.N [ammonium chloride]
tolerance for ammonium chloride with concomitant atrazine degradation, relative to wild-type ([5]; E. coli DH5α (pMD1 or pMD2) vs Pseudomonas strain ADP): 40-80 fold
ammonium chloride concentration in whose presence atrazine degradation (clearing) was observed ([5]; solid media with 500 ppm atrazine): ≤ 48 mM
ammonium chloride concentration sufficient to inhibit visible clearing of atrazine [6]: 0.6 to 1.2 mM

atrazine chlorohydrolase (AtzA) (Pseudomonas sp. ADP)
Km (CCNc1nc(Cl)nc(NC(C)C)n1): 125 µM
